Data: patent US20060030569A1, “Diarylmethyl piperazine derivatives, preparations thereof and uses thereof” (AstraZeneca AB, priority 2004, published 2006)
Read-outs that look alike come from different tables or passages of the source.

Columns and labels:
human δ receptors = biological target: T1, human δ receptors (Homo sapiens, UniProt P41143); assay: Human δ receptor functional assay, GTP[γ]35S binding; format: biochemical; conditions: for Emax: in relation to SNC80
T1 construct: expressed in transfected cells
T1 sequence (P41143 whole entry): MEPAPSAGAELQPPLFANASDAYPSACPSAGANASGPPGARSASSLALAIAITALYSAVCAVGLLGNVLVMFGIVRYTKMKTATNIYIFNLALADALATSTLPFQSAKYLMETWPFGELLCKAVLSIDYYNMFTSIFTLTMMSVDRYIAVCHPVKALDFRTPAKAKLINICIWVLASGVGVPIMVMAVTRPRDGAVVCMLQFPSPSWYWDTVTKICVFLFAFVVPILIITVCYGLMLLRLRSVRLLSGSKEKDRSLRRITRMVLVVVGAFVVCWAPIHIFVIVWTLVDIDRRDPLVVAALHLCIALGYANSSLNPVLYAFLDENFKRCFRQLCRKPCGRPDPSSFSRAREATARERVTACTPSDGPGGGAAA
Procedure: (§1) The agonist activity of the compounds is measured by determining the degree to which the compounds receptor complex activates the binding of GTP to G-proteins to which the receptors are coupled. In the GTP binding assay, GTP[γ]^35S is combined with test compounds and membranes from BEK-293S cells expressing the cloned human opioid receptors or from homogenised rat or mouse brain. Agonists stimulate GTP[γ]^35S binding in these membranes. The EC50 and Emax values of compounds are determined from dose-response curves. Right shifts of the dose response curve by the delta antagonist naltrindole are performed to verify that agonist activity is mediated through delta receptors. For human δ receptor functional assays, EC50 (low) is measured when the human δ receptors used in the assay were expressed at lower levels in comparison with those used in determining EC50 (high). The Emax values were determined in relation to the standard δ agonist SNC80, i.e., higher than 100% is a compound that has better efficacy than SNC80.
(§2) Rat brain membranes are thawed at 37° C., passed 3 times through a 25-gauge blunt-end needle and diluted in the GTPγS binding (50 mM Hepes, 20 mM NaOH, 100 mM NaCl, 1 mM EDTA, 5 mM MgCl2, pH 7.4, Add fresh: 1 mM DTT, 0.1% BSA). 120 μM GDP final is added membranes dilutions. […] The basal and maximal stimulated binding are determined in absence and presence of 3 μM SNC80. The assay performed on HEK 293S cells stably expressing cloned Delta receptors is done in a slightly different buffer (50 mM Hepes, 20 mM NaOH, 200 mM NaCl, 1 mM EDTA, 5 mM MgCl2, pH 7.4, Add fresh: 0.5% BSA, no DTT) and with a 3 μM final conc. of GDP.

cloned human μ receptors = biological target: T2, cloned human μ receptors (Homo sapiens, UniProt P35372); assay: Binding assay, displacement of 125I-FK33824 (IC50hm)
T2 construct: expressed in transfected cells; host or cells: human 293S (HEK 293S) cells
T2 sequence (P35372 whole entry): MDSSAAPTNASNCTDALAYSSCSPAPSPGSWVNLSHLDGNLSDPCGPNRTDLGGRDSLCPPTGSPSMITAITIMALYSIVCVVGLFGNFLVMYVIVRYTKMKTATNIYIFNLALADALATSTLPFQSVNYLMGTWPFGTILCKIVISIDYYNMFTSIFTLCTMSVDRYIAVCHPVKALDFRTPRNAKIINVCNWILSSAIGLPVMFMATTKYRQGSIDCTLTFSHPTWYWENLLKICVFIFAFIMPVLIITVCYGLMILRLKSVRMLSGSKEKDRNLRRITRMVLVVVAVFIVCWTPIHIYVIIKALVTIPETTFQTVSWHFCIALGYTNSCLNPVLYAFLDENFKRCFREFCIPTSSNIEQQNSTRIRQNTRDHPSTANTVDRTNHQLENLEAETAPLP

cloned human κ receptors = biological target: T3, cloned human κ receptors (Homo sapiens, UniProt P41145); assay: Binding assay, displacement of 125I-DPDYN (IC50hk)
T3 construct: expressed in transfected cells; host or cells: human 293S (HEK 293S) cells
T3 sequence (P41145 whole entry): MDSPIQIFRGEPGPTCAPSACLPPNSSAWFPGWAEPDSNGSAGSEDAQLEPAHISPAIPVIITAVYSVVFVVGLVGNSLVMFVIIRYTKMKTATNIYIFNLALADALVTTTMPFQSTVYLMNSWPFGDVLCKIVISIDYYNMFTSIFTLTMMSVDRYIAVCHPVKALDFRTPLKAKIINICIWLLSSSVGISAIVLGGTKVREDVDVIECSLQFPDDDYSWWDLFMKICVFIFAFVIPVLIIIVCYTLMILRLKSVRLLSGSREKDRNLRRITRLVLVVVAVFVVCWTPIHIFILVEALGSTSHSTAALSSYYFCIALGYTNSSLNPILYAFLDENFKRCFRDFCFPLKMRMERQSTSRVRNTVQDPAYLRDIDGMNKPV

cloned human δ receptors = biological target: T4, cloned human δ receptors (Homo sapiens, UniProt P41143); assay: Binding assay, displacement of 125I-Deltorphin II (IC50hd)
T4 construct: expressed in transfected cells
T4 sequence (P41143 whole entry): as the sequence (P41143 whole entry) above

[1] = biological target: T5, δ receptors in rat brain membranes (Rattus norvegicus, UniProt P33533); assay: Rat brain functional assay, GTPγ35S binding; format: biochemical; conditions: for Emax: in relation to SNC80, read-out: EC50rb Emax
T5 construct: membranes from BEK-293S cells expressing the cloned human opioid receptors or from homogenised rat or mouse brain; from tissue; host or cells: rat brain
T5 sequence (P33533 whole entry): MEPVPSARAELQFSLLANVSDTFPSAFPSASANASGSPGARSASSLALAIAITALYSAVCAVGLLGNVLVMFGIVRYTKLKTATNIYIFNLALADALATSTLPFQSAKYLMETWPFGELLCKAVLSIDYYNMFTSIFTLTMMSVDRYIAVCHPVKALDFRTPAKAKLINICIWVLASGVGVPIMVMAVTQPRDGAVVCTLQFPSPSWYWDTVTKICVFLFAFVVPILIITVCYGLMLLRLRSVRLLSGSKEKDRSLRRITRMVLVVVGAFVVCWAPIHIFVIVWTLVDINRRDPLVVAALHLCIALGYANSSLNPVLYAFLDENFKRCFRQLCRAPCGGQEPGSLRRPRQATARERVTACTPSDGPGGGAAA
Procedure: Rat brains are weighed and rinsed in ice-cold PBS (containing 2.5 mM EDTA, pH 7.4). The brains are homogenized with a polytron for 30 sec (rat) in ice-cold lysis buffer (50 mM Tris, pH 7.0, 2.5 mM EDTA, with phenylmethylsulfonyl fluoride added just prior use to […] from a 0.5 M stock in DMSO:ethanol).
as §1, with “(high).” for “(high). The Emax values were determined in relation to the standard δ agonist SNC80, i.e., higher than 100% is a compound that has better efficacy than SNC80.”
as §2

[2] = EC50h (low), human δ receptors expressed at lower levels
[3] = human δ receptors expressed at lower levels, read-out: EC50h (low) Emax
[4] = human δ receptors expressed at higher levels, read-out: EC50h (high) Emax
[5] = human δ receptors expressed at higher levels, read-out: EC50h (high)
[6] = human δ receptor, 293S cell membranes, read-out: IC50hd

Structure (SMILES)	EC50 (human δ receptors; [2]) [nM]	Emax (human δ receptors; [3]) [%]	IC50 (cloned human μ receptors) [nM]	IC50 (cloned human κ receptors) [nM]	IC50 (cloned human δ receptors) [nM]	Emax (human δ receptors; [4]) [%]	EC50 (human δ receptors; [5]) [nM]	EC50 (human δ receptors; human δ receptors expressed at lower levels, read-out: EC50h (low)) [nM]	EC50 [1] [nM]	Emax [1] [%]	IC50 (cloned human δ receptors; [6]) [nM]
CCN(CC)C(=O)c1ccc([C@H](c2cccc(N)c2)N2CCN(Cc3ccccc3F)CC2)cc1	48.1	90	2260	7260	0.717						
CCN(CC)C(=O)c1ccc([C@H](c2cccc(N)c2)N2CCN(Cc3ccc(F)cc3)CC2)cc1		95.3	715	5520		104	4.18	20.6	22.8	130	0.587
CCN(CC)C(=O)c1ccc([C@H](c2cccc(N)c2)N2CCN(Cc3cccc(F)c3)CC2)cc1	77.4	84.4	2740	5770	1.08						
CCN(CC)C(=O)c1ccc([C@@H](c2cccc(N)c2)N2CCN(Cc3ccc(F)cc3)CC2)cc1			3320	> 10000		89.1	100		466	66.3	8.8
